Laboratory results reported in US20230111212A1, “MUSCLE TARGETING COMPLEXES AND USES THEREOF FOR TREATING DYSTROPHINOPATHIES” (Dyne Therapeutics, Inc., priority 2020, published 2023).

How the values were obtained:
[1] = test system: creatine kinase; assay: creatine kinase activity levels in mdx mice; format: in vivo, mouse; details: single i.v. dose 30 mg/kg, two and four weeks after injection
Protocol: (§1) Each experimental condition was replicated in five mdx mice. Five wild-type mice (healthy mice) were also dosed with vehicle control (saline).
All mice in this Example were further tested for creatine kinase activity levels two weeks and four weeks after injection.

[2] = test system: mdx mice (DMD mouse model); assay: open field chamber experiment with hind limb fatigue challenge; format: in vivo; details: single i.v. dose 30 mg/kg, two weeks after injection
Protocol: as §1
Two weeks after injection, the functional activity of all treated mice was determined using an open field chamber experiment. The experiment involved three consecutive stages: (1) a 10-minute period during which each mouse was placed into an open field chamber; (2) a 10-minute period during which each mouse was subjected to a hind limb fatigue challenge; and (3) a 10-minute period during which each mouse was placed into an open field chamber. The total horizontal distances traveled during stages (1) and (3) were collected. The percent change in the total distance traveled between the first and second tests.

[3] = test system: mdx mice (DMD mouse model); assay: cage running wheel test; format: in vivo; details: single i.v. dose 30 mg/kg, four weeks after injection, 24-hour period
Protocol: as §1
Four weeks after injection, the activity of all treated mice was determined using a cage running wheel test. Each mouse was individually placed into cages with a running wheel for a 24-hour period. The 24-hour period involved five hours of light on followed by thirteen hours of darkness, and ending with six hours of light. The total distance traveled (in meters, m) by each mouse on the running wheel was continuously collected throughout the 24-hour period and subsequently binned into discrete one-hour increments.

In the case of “MDX-ASO: naked exon 23 skipping PMO ASO; GGCCAAACCUCGGCUUACCUGAAAU (SEQ ID NO: 277) (PMO chemistry, chemistry not fully specified)”, the “creatine kinase activity levels” value [1] is reported as “no significant benefit”, the “average decrease of total horizontal distance traveled during stage (3) relative to stage (1)” value [2] is reported as “about 85%” and the “functional performance in open field chamber experiment” value [2] is reported as “same compromised functional performance as those treated with vehicle”. The “distance traveled on running wheel during the dark period” value [3] was “considerably shorter distances”.
